# Reference: publication PMC10714400, “Antimicrobial Peptide–Peptoid Hybrids with and without Membrane Disruption” (ACS Infectious Diseases, 2023)
# pIC50: −log10 of the molar value. Where a SMILES comes first, the peptide text is derived from it. [ ]: non-standard residue; d: D form. Nleu = CC(C)CNCC(=O)O; Nlys = NCCCCNCC(=O)O
# Assays:
# [1] = test system: human red blood cells (hRBC); experiment: Minimum hemolytic concentration (MHC); assay type: cell-based
# Source text: We also measured minimal hemolysis concentrations (MHC) on human red blood cells by serial 2-fold dilution as an indication of toxicity against eukaryotic cells (Table 1).
# [2] = test system: ZEM-1A (clinical MDR P. aeruginosa isolate)
# Summary of the method: (§1)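 MIC read visually after MTT staining: lowest compound concentration preventing visible growth (yellow wells). Inoculum ~5 × 10^5 CFU per well in MH broth; static incubation at 37 °C for ca. 18 h.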
# [3] = test system: ZEM9A (clinical MDR P. aeruginosa isolate); details: […] MH at pH 8.5
# Summary of the method: as §1
# E. coli W3110 = test system: E. coli W3110
# Summary of the method: as §1
# E. cloacae = details: Table S3; […] MH at pH 8.5
# Summary of the method: as §1
# PA14 4.13 (phoQ) = test system: PA14 4.13 (phoQ)
# Summary of the method: as §1
# K. pneumoniae OXA-48 = details: […] MH at pH 8.5
# Summary of the method: as §1
# PA14 2P4 (pmrB) = test system: PA14 2P4 (pmrB)
# Summary of the method: as §1
# S. aureus COL (MRSA) = test system: S. aureus COL (MRSA)
# Summary of the method: as §1
# [4] = Circular dichroism, α-helical content; assay type: physicochemical; details: 0.1 mg/mL; for CD %α with 5 mM DPC: 10 mM phosphate buffer pH 7.4, 5 mM DPC; for CD %α with 20% TFE: 10 mM phosphate buffer pH 7.4, 20% TFE
# S. epidermis = details: Table S3; […] MH at pH 8.5
# Summary of the method: as §1
# P. aeruginosa PA14 = details: Table S3; […] MH at pH 8.5, 16-20 hours at 37 °C
# Summary of the method: as §1
# S. maltophilia = details: Table S3; […] MH at pH 8.5
# Summary of the method: as §1
# S. aureus Newman = details: Table S3; […] MH at pH 8.5
# Summary of the method: as §1
# B. cenocepacia = details: 4 h, pH 8.5
# Summary of the method: as §1
# HEK293 cells = experiment: Cell viability assay by Alamar blue
# Method: The data are represented as the mean value ± SD, n = 3. […] (c) Vesicle leakage assay for a selection of compounds. Lipid vesicles made of EYPG or EYPC were suspended in a buffer (10 mM TRIS, 107 mM NaCl, pH 7.4). After 45 s, the indicated compound was added to reach the desired concentration. After 240 s, 30 μL of 1.2% TritonX-100 was added for full fluorescein release. […] See Supporting Information for the full curves, all of the data, and procedures.
# HEK293 cells were cultured and maintained in DMEM high glucose (Dulbecco’s modified Eagle medium, Sigma Aldrich) medium supplemented with 10% FBS (Sigma Aldrich) and 1% penicillin/streptomycin. A549 cells were cultured and maintained in RPMI-1640 medium (Sigma Aldrich), supplemented with 10% FBS (Sigma Aldrich) and 1% penicillin/streptomycin. The cells were handled and subcultured according to the manufacturer instructions. Cells were incubated in a humidified incubator at 37 °C in the presence of 5% CO2.
# Assays on HEK293, A549 cells were performed as described earlier.[74] […]
# [5] = diluted MH ([…] MH) at pH 8.5 (Table 2 footnote b)
compound,measurement,setting,value
"CC(C)C[C@H](NC(=O)CN(CC(C)C)C(=O)[C@H](CC(C)C)NC(=O)CN(CCCCN)C(=O)[C@H](CC(C)C)NC(=O)CN(CC(C)C)C(=O)[C@H](CCCCN)NC(=O)CN(CC(C)C)C(=O)[C@H](CC(C)C)NC(=O)CN(CCCCN)C(=O)[C@@H](N)CCCCN)C(N)=O [EB9, KkLlKlLkLlL] (H-K[Nlys]L[Nleu]K[Nleu]L[Nlys]L[Nleu]L-NH2)",Hemolysis,[1],none of them showed any measurable hemolysis
same,MHC,[1],>2000 µg/mL
same,"MIC P. aeruginosa ZEM-1A, […] MH at pH 8.5","[2]; CSV, […] MH at pH 8.5",3 ug/mL
same,MIC P. aeruginosa ZEM-1A,"[2]; Table S3, […] MH at pH 8.5",2 to 4 µg/mL
same,MIC ZEM-1A,[2]; [5],2 to 4 µg/mL
same,"MIC P. aeruginosa ZEM9A, […] MH at pH 8.5",[3]; CSV,2 ug/mL
same,MIC P. aeruginosa ZEM9A,[3]; Table S3,2 µg/mL
same,"MIC E. coli W3110, […] MH at pH 7.4","E. coli W3110; CSV, […] MH at pH 7.4",2 ug/mL
same,"MIC E. coli W3110, […] MH at pH 8.5","E. coli W3110; CSV, […] MH at pH 8.5",2 ug/mL
same,"MIC E. coli W3110, full MH at pH 7.4","E. coli W3110; CSV, full MH at pH 7.4",16 ug/mL
same,Antibacterial activity as a function of NaCl concentration,"E. coli W3110; E. coli W3110, […] MH at pH 8.5, up to 300 mM NaCl",strongly reduced
same,MIC E. coli W3110 […] 7.4,"E. coli W3110; Table S2, […] MH, pH 7.4",2 µg/mL
same,MIC E. coli W3110 […] 8.5,"E. coli W3110; Table S2, […] MH, pH 8.5",2 µg/mL
same,MIC E. coli W3110 Full MH 7.4,"E. coli W3110; Table S2, full MH, pH 7.4",16 µg/mL
same,MIC E. coli W3110 Full MH 8.5,"E. coli W3110; Table S2, full MH, pH 8.5",> 32 µg/mL
same,MIC E. cloacae,E. cloacae,16 µg/mL
same,"MIC P. aeruginosa PA14 4.13, […] MH at pH 8.5","PA14 4.13 (phoQ); CSV, […] MH at pH 8.5",2 ug/mL
same,MIC PA14 4.13 (phoQ),PA14 4.13 (phoQ); [5],2 µg/mL
same,"MIC K. pneumoniae OXA-48, […] MH at pH 8.5",K. pneumoniae OXA-48; CSV,32 ug/mL
same,MIC K. pneumoniae OXA-48,K. pneumoniae OXA-48; Table S3,32 µg/mL
same,"MIC P. aeruginosa PA14 2P4, […] MH at pH 8.5","PA14 2P4 (pmrB); CSV, […] MH at pH 8.5",4 ug/mL
same,MIC PA14 2P4 (pmrB),PA14 2P4 (pmrB); [5],4 µg/mL
same,"MIC S. aureus COL (MRSA), full MH at pH 7.4","S. aureus COL (MRSA); COL, 4 h, pH 7.4",>32 ug/mL
same,"MIC S. aureus COL (MRSA), full MH at pH 8.5","S. aureus COL (MRSA); COL, 4 h, pH 8.5",>32 ug/mL
same,MIC S. aureus COL (MRSA) […] 7.4,"S. aureus COL (MRSA); Table S2, […] MH, pH 7.4",32 µg/mL
same,MIC S. aureus COL (MRSA) Full MH 7.4,"S. aureus COL (MRSA); Table S2, full MH, pH 7.4",> 32 µg/mL
same,MIC S. aureus COL (MRSA) Full MH 8.5,"S. aureus COL (MRSA); Table S2, full MH, pH 8.5",> 32 µg/mL
same,CD %α with 5 mM DPC,"[4]; DichroWeb, Contin-LL",11%
same,CD %α with 20% TFE,"[4]; DichroWeb, Contin-LL",13%
same,CD %α with 5 mM DPC,[4]; Table S2,11%
same,CD %α with 20% TFE,[4]; Table S2,13%
same,MIC S. epidermis,S. epidermis,2 µg/mL
same,MIC P. aeruginosa PA14,P. aeruginosa PA14,2 µg/mL
same,MIC S. maltophilia,S. maltophilia,8 µg/mL
same,MIC S. aureus Newman,S. aureus Newman,4 µg/mL
same,MIC B. cenocepacia,B. cenocepacia,>32 µg/mL
same,"Toxicity against HEK293 cells, no effect detected up to",HEK293 cells,> 200 µM
same,pIC50,"HEK293 cells; read-out: Toxicity on HEK293 cells, CSV",< 3.70
